Common to all, as to type: functional
Experiment [1] is filed under the species Rattus norvegicus. Kind of experiment: Muscle relaxant activity in rat assessed as reduction in electrically stimulated phrenic nerve-induced diaphragm contraction at 5.1 ug/ml in presence of synstigmine.
Experiment [2] is filed under the species Rattus norvegicus. Briefly: Muscle relaxant activity in rat assessed as reduction in electrically stimulated phrenic nerve-induced diaphragm contraction at 5.1 ug/ml. Also noted: scale not given: the % may be the effect or the level left.
The species named for experiment [3] is Rattus norvegicus. Kind of experiment: Muscle relaxant activity in rat assessed as reduction in electrically stimulated phrenic nerve-induced diaphragm contraction at 50 ug/ml.

The source made the active and inactive calls. The rule behind the calls is not given here.

Take `C[C@@H]1c2cnccc2C=C2c3c(c4ccccc4n31)CCN2C` [DECUSSINE]: the outcome in experiment [1] was Active. Besides, the Activity in experiment [2] amounted to 50%. As to `C[C@@H]1c2cnccc2CC2c3c(c4ccccc4n31)CCN2C` (stereo partly drawn), the outcome in experiment [3] was inactive.

Source of the values: ChEMBL document CHEMBL1151368, “Some new decussine-type alkaloids from Strychnos decussata, Strychnos dale and Strychnos elaecocarpa” (1981).
